From patent publication US12545685B2 (Daiichi Sankyo Company, Limited, priority 2011, dated 2026)

Biological target: T1, Mdm2/p53 binding (GST-Mdm2 / His-p53) (Homo sapiens, UniProt Q00987, L33E)
T1 construct: Mdm2 partial protein having Mdm2 amino acids at positions 25 to 108
Assay: Mdm2/p53 binding assay (HTRF, His-p53 and GST-Mdm2)
Details: His-p53 (aa 1-132) and GST-Mdm2 (aa 25-108, L33E) 6.25 nM each; 25°C, 1 hour; values given as ranges
Protocol: A protein dilution containing 6.25 nM each of His-p53 (fusion protein of a p53 partial protein having p53 amino acids at positions 1 to 132, with a histidine protein) and GST-Mdm2 (fusion protein of an Mdm2 partial protein having Mdm2 amino acids at positions 25 to 108 with leucine residue 33 substituted by glutamic acid, with glutathione transferase) proteins was prepared using a protein buffer solution (20 mM HEPES pH 7.4, 150 mM NaCl, 0.1% BSA). This protein dilution was added in an amount of 8 μl/well to a 384-well plate (384-well low volume NBC, Corning Inc., catalog No: 3676).
Next, a test compound was diluted with DMSO to produce a protein buffer solution containing 10% dilution, and this buffer solution was added in an amount of 4 μl/well to the plate.
Subsequently, a solution containing an XL665-labeled anti-His antibody (HTRF monoclonal anti-6HIS antibody labeled with XL665 (catalog No: 61HISXLB), Schering/Cisbio Bioassays) and a europium (Eu)-labeled anti-GST antibody (HTRF monoclonal anti-GST antibody labeled with europium cryptate, Schering/Cisbio Bioassays, catalog No: 61GSTKLB) at concentrations of 2.5 μg/ml and 0.325 μg/ml, respectively, was prepared using an antibody diluting buffer solution (20 mM HEPES pH 7.4, 150 mM NaCl, 0.1% BSA, 0.5 M KF). These dilutions were added in an amount of 8 μl/well (total reaction solution volume: 20 μl/well). Then the plate was incubated at 25° ° C. for 1 hour.
Time-resolved fluorescence at 620 and 665 nm was measured at an excitation wavelength of 320 nm using a plate reader (ARVOsx, PerkinElmer Co., Ltd. or PHERAstar, BMG LABTECH). Ratio (R) was calculated using the measured values (RFU 620 nm and RFU 665 nm) according to the following formula: […]
BI: measured value at 665 nm of reaction solution (only each buffer solution) nonsupplemented with each protein, the compound, and the antibodies
A and D: each measured value at 665 nm and 620 nm of reaction solution supplemented with only Eu-labeled anti-GST antibody solution
The R value calculated from the well supplemented with His-p53, GST-Mdm2, the test compound, and each antibody was defined as R (sample). The R value calculated from the well supplemented with His-p53, GST-Mdm2, and each antibody but without the test compound was defined as R (control). The R value calculated from the well supplemented with GST-Mdm2 the test compound, and each antibody but without His-p53 was defined as R (background). T/C was calculated from the formula shown below. An IC50 value for Mdm2/p53 binding was calculated by sigmoid fitting.

T1 sequence (Q00987 25-108 L33E): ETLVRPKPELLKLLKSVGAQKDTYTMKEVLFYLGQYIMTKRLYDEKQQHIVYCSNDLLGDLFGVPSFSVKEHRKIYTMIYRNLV

| SMILES | IC50 [nM] |
| --- | --- |
| CC1(C)CCC2(CC1)N[C@@H](C(=O)N[C@H]1CC[C@H](N3CC(O)C3)CC1)[C@H](c1cccc(Cl)c1F)[C@]21C(=O)Nc2cc(Cl)ccc21 (relative stereo) [Example 12, (3′R, 4′S,5′R)-6″-chloro-4′-(3-chloro-2-fluorophenyl)-N-[trans-4-(3-hydroxyazetidin-1-yl)cyclohexyl]-4,4-dimethyl-2″-oxo-1″,2″-dihydrodispiro[cyclohexane-1,2′-pyrrolidine-3′,3″-indole]-5′-carboxamide] | 1 to 50 |
| CNC(=O)c1cc(Cl)cc([C@H]2[C@H](C(=O)N[C@H]3CC[C@H](O)CC3)NC3(CCC(C)(C)CC3)[C@@]23C(=O)Nc2cc(Cl)ccc23)c1 (relative stereo) [Example 21, (3′R, 4′R, 5′R)-6″-chloro-4′-[3-chloro-5-(methylcarbamoyl)phenyl]-N-(trans-4-hydroxycyclohexyl)-4,4-dimethyl-2″-oxo-1″,2″-dihydrodispiro[cyclohexane-1,2′-pyrrolidine-3′,3″-indole]-5′-carboxamide] | 1 to 50 |
| CC1(C)CCC2(CC1)N[C@@H](C(=O)N[C@H]1CC[C@H](O)CC1)[C@H](c1cc(N)cc(Cl)c1)[C@]21C(=O)Nc2cc(Cl)ccc21 (relative stereo) [Example 36, (3′R, 4′R, 5′R)-4′-(3-amino-5-chlorophenyl)-6″-chloro-N-(trans-4-hydroxycyclohexyl)-4,4-dimethyl-2″-oxo-1″,2″-dihydrodispiro[cyclohexane-1,2′-pyrrolidine-3′,3″-indole]-5′-carboxamide] | 1 to 50 |
| CC1(C)CCC2(CC1)N[C@@H](C(=O)N[C@H]1CC[C@H](c3noc(=O)[nH]3)CC1)[C@H](c1cccc(Cl)c1F)[C@]21C(=O)Nc2nc(Cl)ccc21 (relative stereo) [Example 49, (3′R, 4′S,5′R)-6″-chloro-4′-(3-chloro-2-fluorophenyl)-4,4-dimethyl-2″-oxo-N-[trans-4-(5-oxo-4,5-dihydro-1,2,4-oxadiazol-3-yl)cyclohexyl]-1″,2″-dihydrodispiro[cyclohexane-1,2′-pyrrolidine-3′,3″-pyrrolo[2,3-b]pyridine]-5′-carboxamide] | 1 to 50 |
| O=C(N[C@H]1CC[C@H](O)CC1)[C@@H]1NC2(CC(CF)(CF)C2)[C@@]2(C(=O)Nc3cc(Cl)ccc32)[C@H]1c1cccc(Cl)c1F (relative stereo) [Example 121, (3′R, 4′S,5′R)-6″-chloro-4′-(3-chloro-2-fluorophenyl)-3,3-bis(fluoromethyl)-N-(trans-4-hydroxycyclohexyl)-2″-oxo-1″,2″-dihydrodispiro[cyclobutane-1,2′-pyrrolidine-3′,3″-indole]-5′-carboxamide] | 50 to 100 |
| CN(C)C(=O)[C@H]1CC[C@H](NC(=O)[C@@H]2NC3(CC(CF)(CF)C3)[C@@]3(C(=O)Nc4cc(Cl)ccc43)[C@H]2c2cc(F)cc(Cl)c2)CC1 (relative stereo) [Example 168, (3′R, 4′R, 5′R)-6″-chloro-4′-(3-chloro-5-fluorophenyl)-N-[trans-4-(dimethylcarbamoyl)cyclohexyl]-3,3-bis(fluoromethyl)-2″-oxo-1″,2″-dihydrodispiro[cyclobutane-1,2′-pyrrolidine-3′,3″-indole]-5′-carboxamide] | 100 to 500 |
| CC1(C)CCC2(CC1)N[C@@H](C(=O)N[C@H]1CC[C@H](c3nnco3)CC1)[C@H](c1ccnc(Cl)c1F)[C@]21C(=O)Nc2cc(Cl)ncc21 (relative stereo) [Example 190] | 50 to 100 |
| CC(O)[C@@H]1CC[C@@H](NC(=O)[C@@H]2NC3(CCC(C)(C)CC3)[C@@]3(C(=O)Nc4nc(Cl)ccc43)[C@H]2c2ccnc(Cl)c2F)CO1 (single isomer, unassigned) [Example 75] | 1 to 50 |
| CC1(C)CCC2(CC1)N[C@@H](C(=O)N[C@H]1CO[C@H](CO)C(C)(O)C1)[C@H](c1ccnc(Cl)c1F)[C@]21C(=O)Nc2cc(Cl)ccc21 (single isomer, unassigned) [Example 85] | 1 to 50 |
| CC1(C)CCC2(CC1)N[C@@H](C(=O)N[C@@H]1CC[C@@H](C(O)CO)OC1)[C@H](c1ccnc(Cl)c1F)[C@]21C(=O)Nc2cc(Cl)ccc21 (single isomer, unassigned) [Example 89] | 1 to 50 |
| CC(O)[C@@H]1CC[C@@H](NC(=O)[C@@H]2NC3(CC(CF)(CF)C3)[C@@]3(C(=O)Nc4cc(Cl)ccc43)[C@H]2c2cccc(Cl)c2F)CO1 (single isomer, unassigned) [Example 146] | 1 to 50 |
| CC(O)[C@@H]1CC[C@@H](NC(=O)[C@@H]2NC3(CC(CF)(CF)C3)[C@@]3(C(=O)Nc4cc(Cl)ccc43)[C@H]2c2cccc(Cl)c2F)CO1 (single isomer, unassigned) [Example 147] | 50 to 100 |
| CC1(C)CCC2(CC1)N[C@@H](C(=O)N[C@@H]1CC[C@@H](C(C)(C)O)OC1)[C@H](c1ccnc(Cl)c1)[C@]21C(=O)Nc2cc(Cl)ccc21 [Example 10, (3′R, 4′R, 5′R)-6″-chloro-4′-(2-chloropyridin-4-yl)-N-[(3R,6S)-6-(1-hydroxy-1-methylethyl)tetrahydro-2H-pyran-3-yl]-4,4-dimethyl-2″-oxo-1″,2″-dihydrodispiro[cyclohexane-1,2′-pyrrolidine-3′,3″-indole]-5′-carboxamide] | 50 to 100 |
| CC1(C)CCC2(CC1)N[C@@H](C(=O)N[C@H]1CC[C@H](O)CC1)[C@H](c1cccc(Cl)c1F)[C@]21C(=O)Nc2cc(C#N)ccc21 [Example 15, (3′R, 4′S,5′R)-4′-(3-chloro-2-fluorophenyl)-6″-cyano-N-(trans-4-hydroxycyclohexyl)-4,4-dimethyl-2″-oxo-1″,2″-dihydrodispiro[cyclohexane-1,2′-pyrrolidine-3′,3″-indole]-5%-carboxamide] | 50 to 100 |
| CC1(C)CCC2(CC1)N[C@@H](C(=O)N[C@@H]1C=C[C@@H](CO)OC1)[C@H](c1cccc(Cl)c1F)[C@]21C(=O)Nc2cc(Cl)ccc21 [Example 19, (3′R,4′S,5′R)-6″-chloro-4′-(3-chloro-2-fluorophenyl)-N-[(3R,6S)-6-(hydroxymethyl)-3,6-dihydro-2H-pyran-3-yl]-4,4-dimethyl-2″-oxo-1″,2″-dihydrodispiro[cyclohexane-1,2′-pyrrolidine-3′,3″-indole]-5′-carboxamide] | 50 to 100 |
| COC(=O)c1cc(Cl)cc([C@H]2[C@H](C(=O)N[C@@H]3CC[C@@H](CO)OC3)NC3(CCC(C)(C)CC3)[C@@]23C(=O)Nc2cc(Cl)ccc23)c1 [Example 22, 1,5-Anhydro-2-[({(3′R, 4′R, 5′R)-6″-chloro-4′-[3-chloro-5-(methoxycarbonyl)phenyl]-4,4-dimethyl-2″-oxo-1″,2″-dihydrodispiro[cyclohexane-1,2′-pyrrolidine-3′,3″-indole]-5′-yl}carbonyl)amino]-2,3,4-trideoxy-D-erythro-hexitol] | 50 to 100 |
| CNC(=O)c1cc(Cl)cc([C@H]2[C@H](C(=O)N[C@@H]3CC[C@@H](CO)OC3)NC3(CCC(C)(C)CC3)[C@@]23C(=O)Nc2cc(Cl)ccc23)c1 [Example 27, 2, 5˜Anhydro-2-[({(3′R, 4′R, 5′R)-6″-chloro-4′-[3-chloro-5-(methylcarbamoyl)phenyl]-4,4-dimethyl-2″-oxo-1″,2″-dihydrodispiro[cyclohexane-1,2′-pyrrolidine-3′,3″-indole]-5′-yl}carbonyl)amino]-2,3,4-trideoxy-D-erythro-hexitol] | 1 to 50 |
